Reference: patent US9212201B2, “Antifungal and antiparasitic polyene macrolides” (priority 2010, dated 2015)
Values after ≈ are worked out from the molar mass of the structure shown.

Key:
Experiment in all cases: In vitro antifungal susceptibility CLSI M27-A2 (MIC, MFC)
Assay type in all cases: cell-based
C. albicans = C. albicans (10)
C. glabrata = C. glabrata (10)
C. parapsilosis = C. parapsilosis (10)
C. tropicalis = C. tropicalis (10)
C. lusitaniae = C. lusitaniae (10)
C. kefyr = C. kefyr (10)
C. krusei = C. krusei (10)
C. rugosa = C. rugosa (2)
C. guilliermondii = C. guilliermondii (2)
[1] = tested on: Other Candida species (C. lipolytica, C. sake, C. sphaerica, C. norvegica); settings: Other Candida spp. (4)

SMILES: C[C@@H](c1ncncc1F)[C@](O)(Cn1cncn1)c1ccc(F)cc1F [Voriconazole, voriconazole]
- MIC Range (C. albicans): <0.03 to 0.25 µg/mL
- MIC (C. albicans; Candida albicans, read-out: GM (geometric mean MIC)): 0.06 µg/mL (≈ 0.172 µM)
- MIC50 (C. albicans; Candida albicans, read-out: MIC50): 0.03 µg/mL (≈ 0.0859 µM)
- MIC90 (C. albicans; Candida albicans, read-out: MIC90): 0.06 µg/mL (≈ 0.172 µM)
- MIC Range (C. glabrata): 0.12 to 2 µg/mL
- MIC (C. glabrata; Nakaseomyces glabratus, read-out: GM (geometric mean MIC)): 0.56 µg/mL (≈ 1.6 µM)
- MIC50 (C. glabrata; Nakaseomyces glabratus, read-out: MIC50): 0.5 µg/mL (≈ 1.43 µM)
- MIC90 (C. glabrata; Nakaseomyces glabratus, read-out: MIC90): 0.5 µg/mL (≈ 1.43 µM)
- MIC Range (C. parapsilosis): <0.03 to 0.12 µg/mL
- MIC (C. parapsilosis; Lodderomyces parapsilosis, read-out: GM (geometric mean MIC)): 0.04 µg/mL (≈ 0.115 µM)
- MIC50 (C. parapsilosis; Lodderomyces parapsilosis, read-out: MIC50): < 0.03 µg/mL
- MIC90 (C. parapsilosis; Lodderomyces parapsilosis, read-out: MIC90): 0.03 µg/mL (≈ 0.0859 µM)
- MIC Range (C. tropicalis): <0.03 to 0.5 µg/mL
- MIC (C. tropicalis; Candida tropicalis, read-out: GM (geometric mean MIC)): 0.13 µg/mL (≈ 0.372 µM)
- MIC50 (C. tropicalis; Candida tropicalis, read-out: MIC50): 0.06 µg/mL (≈ 0.172 µM)
- MIC90 (C. tropicalis; Candida tropicalis, read-out: MIC90): 0.12 µg/mL (≈ 0.344 µM)
- MIC Range (C. lusitaniae): <0.03 to 0.06 µg/mL
- MIC (C. lusitaniae; Clavispora lusitaniae, read-out: GM (geometric mean MIC)): 0.03 µg/mL (≈ 0.0859 µM)
- MIC50 (C. lusitaniae; Clavispora lusitaniae, read-out: MIC50): < 0.03 µg/mL
- MIC90 (C. lusitaniae; Clavispora lusitaniae, read-out: MIC90): 0.03 µg/mL (≈ 0.0859 µM)
- MIC Range (C. kefyr): <0.03 to 16 µg/mL
- MIC (C. kefyr; Kluyveromyces marxianus, read-out: GM (geometric mean MIC)): 1.63 µg/mL (≈ 4.67 µM)
- MIC50 (C. kefyr; Kluyveromyces marxianus, read-out: MIC50): < 0.03 µg/mL
- MIC90 (C. kefyr; Kluyveromyces marxianus, read-out: MIC90): 0.6 µg/mL (≈ 1.72 µM)
- MIC Range (C. krusei): 0.25 to 0.5 µg/mL
- MIC (C. krusei; Pichia kudriavzevii, read-out: GM (geometric mean MIC)): 0.425 µg/mL (≈ 1.22 µM)
- MIC50 (C. krusei; Pichia kudriavzevii, read-out: MIC50): 0.25 µg/mL (≈ 0.716 µM)
- MIC90 (C. krusei; Pichia kudriavzevii, read-out: MIC90): 0.5 µg/mL (≈ 1.43 µM)
- MIC Range (C. rugosa): 0.25 µg/mL (≈ 0.716 µM)
- MIC (C. rugosa; Diutina rugosa, read-out: GM (geometric mean MIC)): 0.25 µg/mL (≈ 0.716 µM)
- MIC Range (C. guilliermondii): 0.06 µg/mL (≈ 0.172 µM)
- MIC (C. guilliermondii; Meyerozyma guilliermondii, read-out: GM (geometric mean MIC)): 0.06 µg/mL (≈ 0.172 µM)
- MIC Range [1]: <0.03 to 1.0 µg/mL
- MIC ([1]; read-out: GM (geometric mean MIC)): 0.39 µg/mL (≈ 1.12 µM)
- MIC50 ([1]; read-out: MIC50): 0.06 µg/mL (≈ 0.172 µM)
